Experimental data: patent publication US6123943A, “NF-KB activity inhibitor” (Kaken Shoyaku Co., Ltd., priority 1997, dated 2000)

Key:
[1] = Acute toxicity test (LD50); details: mouse, in vivo, male mice
NF-κB = test: Gel shift assay: inhibition of NF-κB binding activation in U1 cells; type: cell-based, human; details: for inhibition at 0.1 µg/mL / inhibition at 1 µg/mL: Homo sapiens
Description: Inhibition Action on NF-κB Binding Activation
In order to examine the action of a test compound cepharanthine to inhibit NF-κB binding activation, U1 [a cell strain derived from HIV-1 (HIV type 1) latent infection human monocyte] cells were stimulated or not stimulated with phorbol 12-myristate 13-acetate (PMA) in the presence or absence of the test compound, and the following assay was carried out using a nucleoprotein extract obtained from the resulting cells.
Gel shift assay was carried out using an NF-κB probe of HIV-1. A double-stranded DNA fragment of an NF-κB site-like sequence, 5'-AGTTGAGGGGACTTTCCCAGGC-3' from the transcription initiation point, was used as the NF-κB probe of HIV-1. The 5'-terminus of the probe was radiation-labeled with ^32 p in the usual way using [γ-^32 P]ATP and polynucleotide kinase. […] At the same time, a sample in which a large quantity of non-labeled probe was added to the reaction solution was prepared and the same reaction was carried out as a competitive assay. Thereafter, the ^32 P-labeled NF-κB probe was added thereto to carry out 20 minutes of binding reaction at room temperature. After the reaction, 4% unmodified polyacrylamide gel electrophoresis was carried out in order to separate the DNA-NF-κB complex from free oligonucleotide. The gel was subjected to autoradiography, and NF-κB in the nucleoprotein extract was determined by an image analyzer (BIO-RAD, Model GS-700 Imaging Densitometer).
The action of the test compound to inhibit activation of NF-κB binding by PMA stimulation of U1 cells (inhibition ratio, %) is shown in Table 1.
V3: Cepharanthine control; reaction (2.5 hours) of U1 cells in the
presence of 0.1 μg/ml of cepharanthine
V4: Cepharanthine control; reaction (2.5 hours) of U1 cells in the
presence of 1 μg/ml of cepharanthine
V6: Reaction (2 hours) of U1 cells in the presence of 0.1 μg/ml of
cepharanthine + stimulation (0.5 hour) with 10 ng/ml of PMA
V7: Reaction (2 hours) of U1 cells in the presence of 1 μg/ml of
**: V6, V7, V8 and V9 vs. V5

HIV-1 LTR = HIV-1 LTR CAT assay: inhibition of HIV-1 LTR transcription activity in HeLa cells; type: cell-based; details: 48 hours; for % Inhibition: vs. V3 (PMA)
Description: Inhibition action on HIV-1 LTR transcription activity
In order to examine effect of a test compound cepharanthine on the HIV-1 transcription activity, CAT assay was carried out by the following method.
A plasmid in which chloramphenicol acetyltransferase (CAT) gene has been linked to the downstream of HIV-1 LTR gene was introduced by lipofection into HeLa cells adjusted to a density of 1×10^6 cells, and the resulting cells were cultured in the presence or absence of the test compound and phorbol 12-myristate 13-acetate (PMA). After 48 hours of the culturing, the cells were collected and washed to prepare a cell extract using a freeze-thawing method. The thus prepared cell extract was allowed to react with acetyl CoA and [^14 C]-labeled chloramphenicol (CM), and the thus formed acetyl[^14 C]CM was separated by a thin layer chromatography, subjected to autoradiography and then […] measured using an image analyzer (BIO-RAD, Model GS-700 Imaging Densitometer).
V4: HeLa cells were cultured in the presence of cepharanthine (0.1
μg/ml) + PMA (10 ng/ml)
V5: HeLa cells were cultured in the presence of cepharanthine (1 μg/ml

[2] = 0.1 μg/ml, 2 hours + PMA 10 ng/ml, 0.5 hour
[3] = 1 μg/ml, 2 hours + PMA 10 ng/ml, 0.5 hour

In the case of `COc1cc2c3c(c1OC)Oc1ccc(cc1)C[C@@H]1c4c(cc(OC)c(OC)c4Oc4ccc(cc4)C[C@H]3N(C)CC2)CCN1C` [cycleanine], the LD50 ([1]; intravenous) is reported as 62.5 mg/kg.

In the case of `COc1cc2c3cc1Oc1c4c(cc5c1[C@H](Cc1ccc(cc1)Oc1cc(ccc1O)C[C@H]3N(C)CC2)N(C)CC5)OCO4` [cepharanoline], the LD50 ([1]; intravenous) is reported as 34.3 mg/kg.

With `COc1ccc2cc1Oc1ccc(cc1)C[C@H]1c3c(cc4c(c3Oc3cc5c(cc3OC)CCN(C)[C@@H]5C2)OCO4)CCN1C` [cepharanthine] the Area (NF-κB; [2]) was 70.45 mm × mm, the “Average (OD)” value (NF-κB; [2]) was 0.491 OD and the Labeled amount (NF-κB; [2]) was 34.59 OD × mm × mm. The Area (NF-κB; 0.1 μg/ml, 2.5 hours, no PMA) was 70.53 mm × mm, the “Average (OD)” value (NF-κB; 0.1 μg/ml, 2.5 hours, no PMA) was 0.447 OD and the Labeled amount (NF-κB; 0.1 μg/ml, 2.5 hours, no PMA) was 31.53 OD × mm × mm. For the same compound, the Area (NF-κB; [3]) was 50.63 mm × mm, the “Average (OD)” value (NF-κB; [3]) was 0.490 OD and the Labeled amount (NF-κB; [3]) was 24.81 OD × mm × mm. The Area (NF-κB; 1 μg/ml, 2.5 hours, no PMA) was 69.15 mm × mm, the “Average (OD)” value (NF-κB; 1 μg/ml, 2.5 hours, no PMA) was 0.442 OD and the Labeled amount (NF-κB; 1 μg/ml, 2.5 hours, no PMA) was 30.56 OD × mm × mm. The inhibition at 0.1 µg/mL (NF-κB; 0.1 μg/ml, 2 hours + PMA 10 ng/ml, 0.5 hour, vs. V5 (PMA)) was 24.7%, the inhibition at 0.1 µg/mL (NF-κB; 0.1 μg/ml, 2.5 hours, no PMA, vs. V2 (untreated U1 cells)) was 10.9% and the inhibition at 1 µg/mL (NF-κB; 1 μg/ml, 2 hours + PMA 10 ng/ml, 0.5 hour, vs. V5 (PMA)) was 46%. The inhibition at 1 µg/mL (NF-κB; 1 μg/ml, 2.5 hours, no PMA, vs. V2 (untreated U1 cells)) was 13.7%, the Area (HIV-1 LTR; 0.1 μg/ml + PMA (10 ng/ml)) was 54.31 mm × mm and the “Average (OD)” value (HIV-1 LTR; 0.1 μg/ml + PMA (10 ng/ml)) was 0.892 OD. For the same compound, the Labeled amount (HIV-1 LTR; 0.1 μg/ml + PMA (10 ng/ml)) was 48.44 OD × mm × mm, the “% Inhibition” value (HIV-1 LTR; 0.1 μg/ml + PMA (10 ng/ml)) was 33.1% and the Area (HIV-1 LTR; 1 μg/ml + PMA (10 ng/ml)) was 41.00 mm × mm. For the same compound, the “Average (OD)” value (HIV-1 LTR; 1 μg/ml + PMA (10 ng/ml)) was 0.867 OD, the Labeled amount (HIV-1 LTR; 1 μg/ml + PMA (10 ng/ml)) was 35.55 OD × mm × mm and the “% Inhibition” value (HIV-1 LTR; 1 μg/ml + PMA (10 ng/ml)) was 50.9%. The LD50 ([1]; intravenous) was 47 mg/kg and the LD50 ([1]; oral) was 3410 mg/kg.

Work on `COc1cc2c3cc1Oc1c(OC)c(OC)cc4c1[C@@H](Cc1ccc(O)c(c1)Oc1ccc(cc1)C[C@@H]3N(C)CC2)N(C)CC4` [berbamine] yielded an LD50 ([1]; intravenous) of 18.8 mg/kg.

In the case of `COc1ccc2cc1Oc1ccc(cc1)C[C@H]1c3cc(c(OC)cc3CCN1C)Oc1c(OC)c(OC)cc3c1[C@@H](C2)N(C)CC3` [isotetrandrine], the LD50 ([1]; intravenous) is reported as 32.5 mg/kg.

In the case of `COc1ccc2cc1Oc1ccc(cc1)C[C@H]1c3c(cc(OC)c(O)c3Oc3cc4c(cc3OC)CCN(C)[C@@H]4C2)CCN1C` [homoaromoline], the LD50 ([1]; intravenous) is reported as 42.4 mg/kg.
